# Columns and labels:
# STZ-diabetic rats = test: Plasma glucose lowering in STZ-diabetic rats after i.p. administration (glucose oxidase method); format: in vivo, male Wistar rats; conditions: for AUC (blood glucose): over 72 h after 0.12 mmol/kg i.p., group average; for rats with plasma glucose levels reduced to <9 mmol/L: 0.12 mmol/kg i.p. in 3% gum Arabic, STZ-diabetic rats
# Protocol: Nineteen male Wistar rats weighing 190-220 g were obtained from the Animal Care Center at the University of British Columbia. Animals were acclimatized for a period of 7-14 days in our facility.
# Animals were made diabetic with a single intravenous injection of streptozotocin (STZ) (Source: Sigma) at 60 mg/kg in 0.9% NaCl (1 mL/kg volume) (Source: BDH ) under light halothane (Halocarbon Laboratories) anaesthesia. The diabetic state was confirmed on the third day post-stz-administration with Ames brand Glucometer and Glucostix reading, and blood glucose levels of over 13 mM were categorized as diabetic.
# On day seven post STZ-administration, the nineteen animals were divided randomly into four groups. These four groups received one of four treatments, including control. The control group received an equivalent volume of 3% gum Arabic carrier alone.
# The gum arabic was prepared by dissolving 3 g of gum arabic in 100 mL of distilled water. This mixture was sealed and stored under refrigeration for 1 week before the experiment.
# All drugs were injected intraperitoneally into the rats at a volume of 5 ml/kg in 3% gum Arabic. The dose of administration was 0.12 mmol/kg.
# Animals were allowed free access to food.
# Blood was collected from the tail into heparinized capillary tubes and centrifuged at 10,000 g for 15 minutes. Blood was collected in 50 μL aliquots in this manner prior to drug administration, and at 2, 4, 6, 8, 12, 16, 20, 24, 48 and 72 hours post administration.
# The plasma was analyzed for glucose levels using Boehringer Mannheim Glucose Kits (glucose oxidase method).
# [1] = human, in vivo, cited from earlier work
# [2] = withdrawn drug; cited from earlier work
# STZ diabetic rats = conditions: cited from earlier work
# [3] = Sakurai et al. (1980); cited from earlier work
# rat adipocytes = conditions: in vitro, Nature 284:556-558 (1980); cited from earlier work
compound,measurement,setting,value
"CN(C)C(=N)NC(=N)N [Metformin, 1,1-dimethylbiguanide]",acute lowering of plasma glucose (in words),"STZ-diabetic rats; IP 0.12 mmol/kg in 3% gum Arabic, over 72 hours",did not acutely lower plasma glucose levels
same,AUC (blood glucose),STZ-diabetic rats,1572.94 mmol/L/h
same,dose excreted by the kidneys,[1]; 24 h,about 90%
same,oral dose excreted in the feces,[1]; po,Approximately 30%
"[H]/N=C(/N)N/C(=N/[H])NCCc1ccccc1 [phenformin, 1-phenethylbiguanide]",side effects (in words),[2],serious lactic acidosis side effects
[O]=[V]([O-])([O-])[O-] [vanadate],elevated blood glucose (in words),"STZ diabetic rats; STZ rats, administered in drinking water, McNeill et al. 1985",decreased the elevated blood glucose
same,depression of cardiac performance (in words),"STZ diabetic rats; STZ rats, drinking water, McNeill et al. 1985",prevented the depression of cardiac performance
same,in vivo reduction (in words),[3],reduced in vivo to vanadyl
[O]=[V+2] [vanadyl ion],stimulation of glucose oxidation (in words),rat adipocytes,insulin-like stimulation of glucose oxidation in rat adipocytes was due to the vanadyl ion
O=S(=O)([O-])[O-].[O]=[V+2] [vanadyl sulfate],blood glucose and blood lipids (in words),"STZ diabetic rats; oral, STZ diabetic rats, McNeill et al.",lowers blood glucose and blood lipids
same,secondary complications of diabetes (in words),"STZ diabetic rats; oral, STZ diabetic rats, cataracts and cardiac dysfunction",prevents secondary complications of diabetes such as cataracts and cardiac dysfunction
"Bis(N^1,N^1 -dimethylbiguanidato)oxovanadium(IV) [VO(met)2]",rats with plasma glucose levels reduced to <9 mmol/L,STZ-diabetic rats,40%
same,AUC (blood glucose),STZ-diabetic rats,1362.61 mmol/L/h
same,"plasma glucose lowering, rat studies (in words)","STZ-diabetic rats; rat studies, summary statement",active in lowering plasma glucose
Bis(ethylmaltolato) oxovanadium(IV) [BEOV],rats with plasma glucose levels reduced to <9 mmol/L,STZ-diabetic rats,40%
same,AUC (blood glucose),STZ-diabetic rats,1197.30 mmol/L/h

# Source: patent publication US6287586A, “Pharmaceutical compositions of vanadium biguanide complexes and their use” (priority 1999, dated 2001)
